In US10124004B2, “Pyrido[3,4-d]pyrimidine derivative and pharmaceutically acceptable salt thereof” (Teijin Pharma Limited, priority 2015, dated 2018):

What was measured:
[1] = target: T1, CDK2/cyclin A2 (Homo sapiens, UniProt P24941); test: Human CDK2/cyclin A2 inhibitory activity (QS S Assist CDK2/Cyclin A2_FP Kit, IMAP fluorescence polarization); format: biochemical; conditions: 50% inhibitory concentration against CDK2/cyclin A2, given as class symbol
T1 construct: purchased Carna Biosciences, Inc. QS S Assist CDK2/Cyclin A2_FP Kit
In short: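 Kinase activity read as fluorescence polarization (485/535 nm) after phosphorylated fluorescent substrate binds IMAP reagent (30 min, RT, dark). Enzyme (2.5 ng/well) reacted 60 min at RT with ATP/substrate/metal in HEPES pH 7.4 buffer with Tween 20 and DTT; no-enzyme wells define 0% activity; IC50 by curve fit.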

[2] = target: T2, CDK4/cyclin D3 (Homo sapiens, UniProt P11802); test: Human CDK4/cyclin D3 inhibitory activity (QS S Assist CDK4/Cyclin D3_FP Kit, IMAP fluorescence polarization); format: biochemical; conditions: 50% inhibitory concentration against CDK4/cyclin D3, given as class symbol
T2 construct: purchased Carna Biosciences, Inc. QS S Assist CDK4/Cyclin D3_FP Kit
In short: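 Percent inhibition, relative to DMSO with and without enzyme, was curve-fitted to give IC50 from polarization (ex 485, em 535 nm). The 45-min room-temperature reaction used 12.5-25 ng/well enzyme, kit ATP/substrate/metal mix, and HEPES pH 7.4 buffer with Tween20 and DTT, followed by 30-min IMAP binding in the dark.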

T2 sequence (P11802 whole entry): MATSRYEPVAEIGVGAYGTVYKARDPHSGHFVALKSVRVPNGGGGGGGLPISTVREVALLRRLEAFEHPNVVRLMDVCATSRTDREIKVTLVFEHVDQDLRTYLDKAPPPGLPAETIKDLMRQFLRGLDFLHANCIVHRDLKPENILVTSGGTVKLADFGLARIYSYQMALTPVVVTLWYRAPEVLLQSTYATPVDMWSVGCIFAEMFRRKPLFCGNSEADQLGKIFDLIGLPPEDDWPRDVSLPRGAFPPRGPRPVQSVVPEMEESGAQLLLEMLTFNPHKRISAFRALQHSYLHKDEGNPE
T2 sequence (P30281 whole entry partner): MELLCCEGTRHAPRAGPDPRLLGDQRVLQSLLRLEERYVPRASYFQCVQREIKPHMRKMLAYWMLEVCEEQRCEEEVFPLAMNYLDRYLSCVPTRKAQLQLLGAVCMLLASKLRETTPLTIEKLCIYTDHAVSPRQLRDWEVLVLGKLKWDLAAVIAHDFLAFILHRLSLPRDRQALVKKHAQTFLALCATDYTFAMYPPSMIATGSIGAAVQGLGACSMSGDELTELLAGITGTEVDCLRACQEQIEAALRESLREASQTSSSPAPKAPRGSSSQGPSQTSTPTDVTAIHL

SMILES | IC50 [1] [µM] | IC50 [2] [µM]
CCCNc1nc([C@@H](C)O)cc2cnc(Nc3ccc4c(n3)CCNC4)nc12 [Compound 944] | ≥ 0.1 | < 0.01
CCCNc1nc(C2(C)COC2)cc2cnc(Nc3ccc4c(n3)CCNC4)nc12 [Compound 947] | ≥ 0.1 | < 0.01
CCCNc1nc(C2CCOC2)cc2cnc(Nc3ccc4c(n3)CCNC4)nc12 (stereo not shown) [Compound 948] | ≥ 0.1 | < 0.01
C[C@@H](O)c1cc2cnc(Nc3ccc(CC4CCN(CCO)CC4)cn3)nc2c(NCC2CCOCC2)n1 [Compound 953] | ≥ 0.1 | < 0.01
CC(C)Nc1nc([C@@H](C)O)cc2cnc(Nc3ccc4c(n3)CCN(CCN3CCCC3=O)C4)nc12 [Compound 955] | ≥ 0.1 | < 0.01
CCCNc1nc([C@@H](C)O)cc2cnc(Nc3ccc(-c4cncn4C)cn3)nc12 [Compound 959] | ≥ 0.1 | 0.01 to 0.1
CNC(=O)CN1CCN(c2ccc(Nc3ncc4cc([C@@H](C)O)nc(NC(C)C)c4n3)nn2)CC1 [Compound 960] | ≥ 0.1 | < 0.01
CC(C)Nc1nc([C@@H](C)O)cc2cnc(Nc3ccc(N4CCN(CC(F)(F)F)CC4)nn3)nc12 [Compound 963] | ≥ 0.1 | < 0.01
Cc1ncn(Cc2ccc(Nc3ncc4cc([C@@H](C)O)nc(NC(C)C)c4n3)nc2)c1C(=O)O [Compound 965] | ≥ 0.1 | 0.01 to 0.1
CC(C)Nc1nc([C@@H](C)O)cc2cnc(Nc3ccc(N4CCN(CC(=O)N5CCCC5)CC4)nn3)nc12 [Compound 966] | ≥ 0.1 | < 0.01
CC(C)Nc1nc([C@@H](C)O)cc2cnc(Nc3ccc(N4CCN(CC(=O)N5CCOCC5)CC4)nn3)nc12 [Compound 967] | ≥ 0.1 | < 0.01
CC(C)NC(=O)CN1CCN(c2ccc(Nc3ncc4cc([C@@H](C)O)nc(NC(C)C)c4n3)nn2)CC1 [Compound 968] | ≥ 0.1 | < 0.01
CNC(=O)CN1CCN(Cc2ccc(Nc3ncc4cc([C@@H](C)OC)nc(NC(C)C)c4n3)nc2)CC1 [Compound 971] | ≥ 0.1 | < 0.01
CO[C@H](C)c1cc2cnc(Nc3ccc(CN4CCN(CC(=O)N(C)C)CC4)cn3)nc2c(NC(C)C)n1 [Compound 972] | ≥ 0.1 | < 0.01
CC(=O)c1cc2cnc(Nc3ccc(CN4CCN(CCO)CC4)cn3)nc2c(NCC(C)C)n1 [Compound 973] | ≥ 0.1 | 0.01 to 0.1
CCCNc1nc(C(C)=O)cc2cnc(Nc3ccc(CN4CCN(CCO)CC4)cn3)nc12 [Compound 974] | ≥ 0.1 | 0.01 to 0.1
CCCCNc1nc(C(C)=O)cc2cnc(Nc3ccc(CN4CCN(CCO)CC4)cn3)nc12 [Compound 975] | ≥ 0.1 | 0.01 to 0.1
CCNc1nc([C@@H](C)O)cc2cnc(Nc3ccc(CN4CCN(C[C@H](C)O)CC4)cn3)nc12 [Compound 976] | ≥ 0.1 | < 0.01
CCNc1nc([C@@H](C)O)cc2cnc(Nc3ccc(CN4CCN(C[C@@H](C)O)CC4)cn3)nc12 [Compound 977] | ≥ 0.1 | < 0.01
CCNc1nc([C@@H](C)O)cc2cnc(Nc3ccc(N4CCN(C)CC4)nn3)nc12 [Compound 980] | ≥ 0.1 | < 0.01
CCNc1nc([C@@H](C)O)cc2cnc(Nc3ccc(CN4CCN(CCO)C[C@H]4C)cn3)nc12 [Compound 982] | ≥ 0.1 | < 0.01
CCNc1nc([C@@H](C)O)cc2cnc(Nc3ccc(CN4CCN(CCO)C[C@@H]4C)cn3)nc12 [Compound 983] | ≥ 0.1 | < 0.01
CCNc1nc([C@@H](C)O)c(Cl)c2cnc(Nc3ccc(CN4CCN(CCO)CC4)cn3)nc12 [Compound 984] | ≥ 0.1 | < 0.01
CC(C)Nc1nc([C@@H](C)O)cc2cnc(Nc3ccc(N4CCN(CC(=O)N(C)C)CC4)nn3)nc12 [Compound 991] | ≥ 0.1 | < 0.01
CCNc1nc([C@@H](C)O)cc2cnc(Nc3ccc4c(n3)CCNC4)nc12 [Compound 996] | ≥ 0.1 | < 0.01
C[C@@H](O)c1cc2cnc(Nc3ccc(CN4CCN(CCO)CC4)cn3)nc2c(NC2CC2)n1 [Compound 997] | ≥ 0.1 | < 0.01
C[C@@H](O)c1cc2cnc(Nc3ccc(CN4CCN(CCO)CC4)cn3)nc2c(NCC2CC2)n1 [Compound 999] | ≥ 0.1 | < 0.01
CCCNc1nc([C@@H](C)O)cc2cnc(Nc3ccc(N4CCC(O)CC4)nn3)nc12 [Compound 1000] | ≥ 0.1 | 0.01 to 0.1

Other lines, results leading:

IC50 [1] [µM] | IC50 [2] [µM] | SMILES
≥ 0.1 | < 0.01 | CCCNc1nc(C2(C)COC2)cc2cnc(Nc3ccc(N4CCNCC4)nn3)nc12 [Compound 945]
≥ 0.1 | < 0.01 | CCCNc1nc(C2CCOC2)cc2cnc(Nc3ccc(N4CCNCC4)nn3)nc12 (stereo not shown) [Compound 946]
≥ 0.1 | < 0.01 | CC(C)Nc1nc([C@@H](C)O)cc2cnc(Nc3ccc(Cn4cncn4)cn3)nc12 [Compound 949]
≥ 0.1 | < 0.01 | CC(C)Nc1nc([C@@H](C)O)cc2cnc(Nc3ccc(CC4CCNCC4)cn3)nc12 [Compound 950]
≥ 0.1 | < 0.01 | CC(C)Nc1nc([C@@H](C)O)cc2cnc(Nc3ccc(CC4CCN(CCO)CC4)cn3)nc12 [Compound 951]
≥ 0.1 | < 0.01 | C[C@@H](O)c1cc2cnc(Nc3ccc(CC4CCNCC4)cn3)nc2c(NCC2CCOCC2)n1 [Compound 952]
≥ 0.1 | < 0.01 | CO[C@H](C)c1cc2cnc(Nc3ccc(C4CCNCC4)cn3)nc2c(N[C@H]2CCCOC2)n1 [Compound 956]
≥ 0.1 | < 0.01 | C[C@@H](O)c1cc2cnc(Nc3ccc(C4CCNCC4)cn3)nc2c(N[C@H]2CCCOC2)n1 [Compound 957]
≥ 0.1 | < 0.01 | CC(C)Nc1nc([C@@H](C)O)cc2cnc(Nc3ccc(-c4cncn4C)cn3)nc12 [Compound 958]
≥ 0.1 | < 0.01 | CNC(=O)CN1CCN(c2ccc(Nc3ncc4cc([C@@H](C)O)nc(NC(C)C)c4n3)nc2)C(=O)C1 [Compound 961]
≥ 0.1 | < 0.01 | CC(C)Nc1nc([C@@H](C)O)cc2cnc(Nc3ccc(N4CCN(CC(=O)N(C)C)CC4=O)cn3)nc12 [Compound 962]
≥ 0.1 | < 0.01 | CC(C)Nc1nc([C@@H](C)O)cc2cnc(Nc3ccc(N4CCn5cncc5C4)nn3)nc12 [Compound 964]
≥ 0.1 | 0.01 to 0.1 | CO[C@H](C)c1cc2cnc(Nc3ccc(CN4CCN(CC#N)CC4)cn3)nc2c(NC(C)C)n1 [Compound 969]
≥ 0.1 | < 0.01 | CO[C@H](C)c1cc2cnc(Nc3ccc(CN4CCN(CC(N)=O)CC4)cn3)nc2c(NC(C)C)n1 [Compound 970]
≥ 0.1 | < 0.01 | CO[C@H](C)c1cc2cnc(Nc3ccc(CN4CCNC[C@H]4C)cn3)nc2c(NC(C)C)n1 [Compound 978]
≥ 0.1 | < 0.01 | CO[C@H](C)c1cc2cnc(Nc3ccc(CN4CCNC[C@@H]4C)cn3)nc2c(NC(C)C)n1 [Compound 979]

IC50 [1] [µM] | IC50 [2] [µM] | SMILES
0.01 to 0.1 | < 0.01 | CC(C)Nc1nc([C@@H](C)O)c(F)c2cnc(Nc3ccc(N4CCNCC4=O)cn3)nc12 [Compound 981]
≥ 0.1 | < 0.01 | CC(C)Nc1nc([C@@H](C)O)cc2cnc(Nc3ccc(N4CCNC[C@H]4C)cn3)nc12 [Compound 985]
≥ 0.1 | < 0.01 | CC(C)Nc1nc([C@@H](C)O)cc2cnc(Nc3ccc(N4CCNC[C@@H]4C)cn3)nc12 [Compound 986]
≥ 0.1 | < 0.01 | CC(C)Nc1nc([C@@H](C)O)cc2cnc(Nc3ccc(CN4CCN(C(=O)CO)CC4)cn3)nc12 [Compound 987]
≥ 0.1 | < 0.01 | CO[C@H](C)c1cc2cnc(Nc3ccc(CN4CCN(C(=O)CO)CC4)cn3)nc2c(NC(C)C)n1 [Compound 988]
≥ 0.1 | 0.01 to 0.1 | CC(C)Nc1nc(C2CCCO2)cc2cnc(Nc3ccc(N4CCNCC4)cn3)nc12 (stereo not shown) [Compound 992]
≥ 0.1 | < 0.01 | CC(C)Nc1nc(C2CCCO2)cc2cnc(Nc3ccc(N4CCNCC4)cn3)nc12 (stereo not shown) [Compound 993]
≥ 0.1 | < 0.01 | C[C@@H](O)c1cc2cnc(Nc3ccc(N4CCNCC4)cn3)nc2c(N[C@H]2CCOC2)n1 [Compound 994]
≥ 0.1 | < 0.01 | C[C@@H](O)c1cc2cnc(Nc3ccc(N4CCNCC4)cn3)nc2c(N[C@@H]2CCOC2)n1 [Compound 995]
≥ 0.1 | < 0.01 | C[C@@H](O)c1cc2cnc(Nc3ccc(CN4CCN(CCO)CC4)cn3)nc2c(NC2CCC2)n1 [Compound 998]
≥ 0.1 | < 0.01 | CCNc1nc([C@@H](C)O)cc2cnc(Nc3ccc(N4CCNCC4)cn3)nc12 [Compound 1001]
≥ 0.1 | < 0.01 | CCCNc1nc(C2(C)COC2)cc2cnc(Nc3ccc(N4CCNCC4)cn3)nc12 [Compound 1002]
≥ 0.1 | < 0.01 | CCCNc1nc(C2(C)COC2)cc2cnc(Nc3ccc(CN4CCNCC4)cn3)nc12 [Compound 1003]
≥ 0.1 | < 0.01 | CCCNc1nc(C2CCOC2)cc2cnc(Nc3ccc(N4CCNCC4)cn3)nc12 (stereo not shown) [Compound 1004]
≥ 0.1 | < 0.01 | CCCNc1nc(C2CCOC2)cc2cnc(Nc3ccc(CN4CCNCC4)cn3)nc12 (stereo not shown) [Compound 1005]
